What was measured:
Assay in all cases: two-electrode voltage clamp, CFTR current in oocytes
Format in all cases: cell-based
MOR263-3 [1] = target: T1, MOR263-3 (Mus musculus, UniProt Q8VFQ2); details: agonist; 30 μM
T1 sequence (Q8VFQ2 1-330): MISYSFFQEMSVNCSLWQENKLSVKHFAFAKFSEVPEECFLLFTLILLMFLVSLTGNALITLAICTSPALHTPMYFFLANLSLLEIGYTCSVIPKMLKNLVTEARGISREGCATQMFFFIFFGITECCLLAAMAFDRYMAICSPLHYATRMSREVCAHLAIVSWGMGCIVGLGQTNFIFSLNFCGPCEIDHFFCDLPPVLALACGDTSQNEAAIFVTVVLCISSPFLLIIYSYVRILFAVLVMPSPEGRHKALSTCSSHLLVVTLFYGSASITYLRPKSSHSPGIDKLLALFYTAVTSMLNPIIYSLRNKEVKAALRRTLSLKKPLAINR

rhoMOR263-2 = target: T2, rhoMOR263-2 (Mus musculus, UniProt Q9EPG4); details: agonist; 30 μM
T2 sequence (Q9EPG4 1-317): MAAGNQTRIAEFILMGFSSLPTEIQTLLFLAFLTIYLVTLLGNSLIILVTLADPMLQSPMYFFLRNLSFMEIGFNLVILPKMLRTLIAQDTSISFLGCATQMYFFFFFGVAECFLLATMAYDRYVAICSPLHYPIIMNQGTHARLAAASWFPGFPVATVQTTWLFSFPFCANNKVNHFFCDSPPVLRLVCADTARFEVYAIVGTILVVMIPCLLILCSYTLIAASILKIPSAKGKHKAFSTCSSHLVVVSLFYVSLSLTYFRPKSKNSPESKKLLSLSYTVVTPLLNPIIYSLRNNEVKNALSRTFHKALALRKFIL

MOR263-3 [2] = target: T1, MOR263-3

Compound | two-electrode voltage clamp, CFTR current in oocytes (MOR263-3 [1]) | two-electrode voltage clamp, CFTR current in oocytes (rhoMOR263-2) | EC50 (MOR263-3 [2]) [µM]
CCCCC/C=C/C=C/C=O [trans,trans-2,4-decadienal] | MOR263-3 responded well to trans,trans-2,4-nonadienal, trans,trans-2,4-decadienal | MOR263-2 responded well to trans,trans-2,4-decadienal | –
CCCC/C=C/C=C/C=O [trans,trans-2,4-nonadienal] | MOR263-3 responded well to trans,trans-2,4-nonadienal, trans,trans-2,4-decadienal | – | –
CCC/C=C/C=C/C=O [trans,trans-2,4-octadienal] | – | – | 21 ± 6
CCCCCC/C=C/C=C/C=O [trans,trans-2,4-undecadienal] | – | MOR263-2 responded well to trans,trans-2,4-decadienal, trans,trans-2,4-undecadienal | –
CCCCCCC/C=C/C=O [trans-2-decenal] | – | MOR263-2 responded well to trans,trans-2,4-decadienal, trans,trans-2,4-undecadienal, trans-2-decenal | –
CCCCC/C=C/C=O [trans-2-octenal] | MOR263-3 responded well to trans,trans-2,4-nonadienal, trans,trans-2,4-decadienal, trans-2-octenal | – | –
